Data on 109 compounds can be found in a melting point compilation (Tetko et al.).

One may read the melting point as the temperature of the solid-liquid transition. `O=Cc1ccccc1O`: the melting point is -3.5 °C.
Compound `CC[C@H](C)[C@H](NC(=O)OCc1ccccc1)C(=O)O` displayed a melting point of 52 to 54 °C.
In the case of `COc1cc(/C=C/c2cc(C)cc(OC)c2O)ccc1O`, the melting point came out at 124 °C.
With `CC12CCC(C(C(Br)N(O)c3ccccc3)C1=O)C2(C)C` (centres undefined), the melting point was determined as 121 °C.
As for `O=C(O)C1(C(F)(F)F)CCCC1`, the figure is 37 °C; as for `CC(C)(C)S(=O)(=O)c1cnc(-c2ccccn2)nc1N`, 266 to 268 °C; as for `CCOC(=O)c1c(-c2ccccc2)csc1NC(=O)CCl`, 99 to 100 °C.
`O=C(O)c1cc(=O)cc(C(=O)O)o1`: the melting point is 262 °C.
As for `COc1ccc(C=C2C(=O)NC(=O)NC2=O)cc1OC`, the figure is 265 °C; as for `CCc1ccc(O)c(C(C)=O)c1O`, 130 to 131 °C; as for `NCCCC(N)C(=O)O` (centres undefined), 140 °C.
`c1ccc(-c2cccs2)nc1`: the melting point was 63 °C.
As for `CC(=O)c1c(O)ccc2ccccc12`, the figure is 65 °C; as for `COc1ccc(C(=O)c2cccc(Cl)c2)cc1[N+](=O)[O-]`, 109 to 114 °C.
With `O=c1cc(CN2CCOCC2)c2cc(O)c(O)cc2o1` the figure was 232 °C; with `NC(=O)/C(=N\Nc1ccc(O)cc1)c1nc2ccccc2s1`, 160 °C; with `C=CCc1c(O)c(C(=O)c2ccccc2)cc(C(=O)c2ccccc2)c1O`, 161 °C.
As for `COC(=O)C1=C(C(=O)OC)CC2=C(CC3=C(C2)CC(C(=O)OC)=C(C(=O)OC)C3)C1`, the figure is 260 to 262 °C.
Turning to `CSc1nc(N)n[nH]1`, the melting point is 130 to 133 °C.
`N#Cc1c(N)oc(-c2ccccc2)c1-c1ccccc1` registered a melting point of 205 to 208 °C.
As for `COc1cccc(C2C(C(=O)OC(C)C)=C(C)NC(C)=C2C(=O)OC(C)C)c1O`, the figure is 196 °C; as for `O=C(O)c1ccc(-c2nccs2)cc1`, 239 to 241 °C; as for `Cc1nc(-c2ccc(C(=O)O)s2)cs1`, 200 °C.
With `NC(=S)Nc1cccnc1` the figure was 159 to 160 °C; with `Cc1cc(-c2ccc(NC=O)c(C)c2)ccc1NC=O`, 265 to 270 °C; with `CC(=NC#N)N(C)Cc1ccc(Cl)nc1`, 98.9 °C.
As for `CCCCC(=O)NN`, the figure is 60 °C; as for `O=C(Oc1ccccc1)n1c(C(F)(F)F)nc2cc(Cl)c(Cl)cc21`, 103 °C; as for `O=c1cc(NC2CCCCC2)c2ccccc2o1`, 194 °C.
`CC(C=Cc1ccccc1)c1ccccc1` (centres undefined): the melting point worked out at 47.5 °C.
`CC(C=CC=CC(C)=CC=CC(C)=CC=C1C(C)=CC(=O)CC1(C)C)=CC=CC(C)=CC=C1C(C)=CC(=O)CC1(C)C` gave a melting point of 219 °C.
`CCCCCCCCCCC(C)O` (centres undefined) yielded a melting point of 19 °C.
With `COc1ccc(C(C)=CC(=O)O)c(OC)c1`, the melting point came to 149 °C.
As for `C=CCSc1sc(C(=O)OCC)c2c1C(=O)CCC2`, the figure is 57 to 60 °C; as for `O=CC(C=O)c1cnc2ccccc2n1`, 197 to 199 °C.
As for `Cc1ccc(-n2nc(C)cc2O)cc1`, the figure is 132 to 133 °C; as for `COc1cc([C@@H](O)[C@H](CO)Oc2c(OC)cccc2OC)cc(OC)c1OC`, 105 °C; as for `N[C@H]1CCC[C@H]1C(=O)O` (relative stereo), 218 to 220 °C.
As to `NS(=O)(=O)c1ccc(CCCCCO)cc1`, the melting point is 86 °C.
Take `CCc1cc(Cc2cc(CC)c(N)c(CC)c2)cc(CC)c1N`: the melting point is 88 to 91 °C.
Compound `O=C(O)Cc1ccccc1CC(=O)O` had a melting point of 151 °C.
With `Cc1cc(NN)nc(C)n1` the figure was 189 to 190 °C.
Regarding `O=C(O)c1cc(Oc2ccc(C(F)(F)F)cc2Cl)ccc1[N+](=O)[O-]`, the melting point is 155 °C.
Regarding `O=C1c2ccccc2CC2C=CC=CC12` (centres undefined), the melting point amounted to 152 °C.
`C[Si](C)(C1C=Cc2ccccc21)C1C=Cc2ccccc21` (centres undefined): the melting point lay within 85 to 87 °C.
In turn, `CCN(CC)CN1C(=O)/C(=C\c2ccc(Cl)cc2)SC1=S` returned a melting point of 89 °C.
With `COc1ccc(C#N)c(F)c1F` the figure was 84 °C.
With `COc1cccc2cc(C(=O)O)c(=O)oc12` the figure was 214 to 216 °C.
Compound `C=C1C(=O)OC2C1CCC(C)C1(O)C=CC(=O)C21C` (centres undefined) yielded a melting point of 164 °C.
Consider `Cc1cccc(NC(=O)C(C(F)(F)F)C(F)(F)F)n1`, for which the melting point worked out at 107 °C.
As for `CCOC(=O)N1COCc2c1ccc1cc3ccc4c(c3nc21)COCN4C(=O)OCC`, the figure is 195 °C.
As for `CCCCC(=O)OCC(=O)C1(O)Cc2c(O)c3c(c(O)c2C(OC2CC(NC(=O)C(F)(F)F)C(O)C(C)O2)C1)C(=O)c1c(OC)cccc1C3=O` (centres undefined), the figure is 136 °C; as for `O=C(O)c1cnn(-c2ccc(Cl)cc2)c1C(F)(F)F`, 137 to 138 °C; as for `CCOC(=O)c1c(NC(=S)NCc2ccccc2)sc2c1CCN(Cc1ccccc1)C2`, 135 to 138 °C.
In turn, `CC1(C)SC2C(N3C(=O)C(c4ccccc4)NC3(C)C)C(=O)N2C1C(=O)O` (centres undefined) returned a melting point of 190 °C.
The compound `CC(=O)Nc1cc2c(cc1/C=C/c1ccccc1)CC(c1ccccc1)N2C(C)=O` (centres undefined) returned a melting point of 272 °C.
`O=Cc1nc(-c2ccccc2Cl)c2cc(Cl)ccc2n1`: the melting point is 159 to 160 °C.
As for `O=Cc1c(Sc2ccc(Cl)cc2)nc2sccn12`, the figure is 139 to 141 °C.
The compound `CC12CCC(C(O)=C(Br)C1=O)C2(C)C` (centres undefined) showed a melting point of 188 °C.
As for `O=C(Nc1ccccc1)OCc1ccccc1[N+](=O)[O-]`, the figure is 141 °C; as for `CCC12CC3CC(C1)CC(C(=O)O)(C3)C2`, 94 to 96 °C; as for `O=C(O)c1ccc(CN2CCCCC2)cc1`, 286 to 293 °C.
`NC(=O)CSSCC(N)=O` registered a melting point of 162 °C.
In turn, `NNc1cc(Cl)cc(Cl)c1` yielded a melting point of 115 °C.
With `CCCCCCCCCCCCCCCC(N)=O` the figure was 107 °C; with `N#C/C(=N\Nc1cc(Cl)ccc1Cl)c1nc2ccccc2[nH]1`, 300 to 302 °C.
Compound `O=S(=O)(Cl)c1sccc1C1OCCO1` had a melting point of 93 to 94 °C.
With `NCc1ccccc1-n1cccc1` the figure was 156 to 157 °C; with `COC(=O)c1nc(Cl)c(N)nc1N`, 212 °C.
As for `O=C(O)c1cccnc1F`, the figure is 164 to 165 °C.
For the compound `CC(=O)Oc1c(-c2ccccc2)[nH]c2cc([N+](=O)[O-])ccc12`, the melting point turned out to be 191 °C.
As for `CC12CCC(C(=O)/C(=N\Nc3ccccc3)C1=O)C2(C)C` (centres undefined), the figure is 117 °C; as for `COc1cc2c(cc1OC)OC(C)(C)C=C2`, 46 °C.
As to `CN(C(=O)C(C(F)(F)F)C(F)(F)F)C1CCCCC1`, the melting point stood at 169 °C.
As for `C=C1C(=O)C23C(OC(C)=O)CC4C5(C)CCCC4(C(=O)OC5)C2C(OC(C)=O)CC1C3OC(C)=O` (centres undefined), the figure is 235 °C; as for `CC1=CC(=O)OC(C)(C)O1`, 7 °C; as for `CC12CCC3C4CCC(=O)C=C4CCC3C1CCC2OC(=O)CCc1ccccc1` (centres undefined), 118 °C.
As for `CC1=NCCN1`, the figure is 107 °C; as for `Cc1ccc2cc(F)ccc2c1`, 73 to 74 °C; as for `COC1CCC(C2C(=O)NC(=O)NC2=O)CC1` (centres undefined), 215 °C.
Compound `CCCCOCCOCCOC(C)=O` showed a melting point of -32 °C.
With `O=[N+]([O-])c1ccc2ncoc2c1` the figure was 150 to 152 °C; with `CC(=O)Nc1nc(O)c2nc[nH]c2n1`, 260 °C; with `N#CCc1ccc(Cl)cc1Cl`, 60 to 63 °C.
With `Cc1cc(C(=O)O)c(C)n1Cc1ccncc1` the figure was 171 to 173 °C; with `C#CC(C)(CC)OC(N)=O` (centres undefined), 55.8 °C; with `NC(CCCCCC(=O)O)C(=O)O` (racemic), 223 to 225 °C.
`CC1COc2c(C3(N)CC3)c(F)cc3c(=O)c(C(=O)O)cn1c23` (centres undefined) had a melting point of 269 °C.
As for `Nc1ccncc1C(F)(F)F`, the figure is 100 °C.
As for `O=C(O)C1CC2CC1CCC2O` (centres undefined), the melting point lay in the range of 160 to 169 °C.
Regarding `N#Cc1ccc(Br)cn1`, the melting point was 126 °C.
Compound `Clc1nc(Cl)c2nc[nH]c2n1` displayed a melting point of 184 to 186 °C.
`CCOCCC(OCC)OCC` returned a melting point of 53 °C.
With `C=CCc1c(N)c(C(C)=O)cc(C(C)=O)c1O` the figure was 99.5 to 102 °C; with `N#CCc1csc2ccccc12`, 64 °C.
As for `C1CCC(CCCCCC2CCCCC2)CC1`, the figure is -13.6 °C; as for `CCCCCCc1ccc(O)cc1`, 32 °C; as for `Cc1cc([N+](=O)[O-])cnc1Br`, 57 °C.
As to `CCOC(=O)c1cnc2cc(OCC(C)C)c(OCC(C)C)cc2c1O`, the melting point came out at 290 °C.
`Cn1cc(Cl)c(C=O)n1` came in with a melting point of 82 °C.
On to `Cc1cc(C)c(N=C=S)cc1C`, for which the melting point was in the range of 22 to 24 °C.
On to `CCOC(=O)c1nc2ccccc2s1`, for which the melting point was found to be 70 °C.
As for `COc1cc(-c2n[nH]c(=S)n2/N=C/c2cc(Br)ccc2O)cc(OC)c1OC`, the figure is 230 to 231 °C.
As for `CC(C)CCCC(C)C1CCC2C3CC=C4CC(OC(=O)Cl)CCC4(C)C3CCC12C` (centres undefined), the figure is 118 °C; as for `Cc1cc(N=Nc2ccccc2)ccc1N=Nc1ccccc1`, 109 °C; as for `CCCCOc1cc(C(=O)O)ccc1OC`, 142 to 144 °C.
With `FC(F)(F)c1ccc2[nH]ccc2c1` the figure was 69 °C; with `FC(F)(I)C(F)(F)C(F)(F)C(F)(F)I`, -9 °C; with `O=C(Nc1ccc(C=Cc2ccc(NC(=O)c3ccccc3)cc2)cc1)c1ccccc1`, 352 °C.
